# Experimental data from paper PMC9856672, “SGC-CAMKK2-1: A Chemical Probe for CAMKK2” (Cells, 2023).
# Key:
# HIPK2 = target: T1, HIPK2 (Homo sapiens, UniProt Q9H2X6); assay: KINOMEscan at 1 μM, HIPK2; type: binding; conditions: 1000 nM, read-out: Percent Control
# T1 construct: purchased Eurofins DiscoverX KINOMEscan
# Text: (§1) Supplement cells-12-00287-s001.zip/File S2. KinomeScan data for the CAMKK2 probe and negative control.xlsx, sheet "SGC-CAMKK2-1N" | column: Percent Control
# EPHB3 = target: T2, EPHB3 (Homo sapiens, UniProt P54753); assay: KINOMEscan at 1 μM, EPHB3; type: binding; conditions: 1000 nM, read-out: Percent Control
# T2 construct: purchased Eurofins DiscoverX KINOMEscan
# Text: as §1
# MET = target: T3, MET (Homo sapiens, UniProt P08581); assay: KINOMEscan at 1 μM, MET; type: binding; conditions: 1000 nM, read-out: Percent Control
# T3 construct: purchased Eurofins DiscoverX KINOMEscan
# Text: as §1
# ROCK1 = target: T4, ROCK1 (Homo sapiens, UniProt Q13464); assay: KINOMEscan at 1 μM, ROCK1; type: binding; conditions: 1000 nM, read-out: Percent Control
# T4 construct: purchased Eurofins DiscoverX KINOMEscan
# Text: as §1
# CAMK2A = target: T5, CAMK2A (Homo sapiens, UniProt Q9UQM7); assay: KINOMEscan at 1 μM, CAMK2A; type: binding; conditions: 1000 nM, read-out: Percent Control
# T5 construct: purchased Eurofins DiscoverX KINOMEscan
# Text: as §1
# CAMK2G = target: T6, CAMK2G (Homo sapiens, UniProt Q13555); assay: KINOMEscan at 1 μM, CAMK2G; type: binding; conditions: 1000 nM, read-out: Percent Control
# T6 construct: purchased Eurofins DiscoverX KINOMEscan
# Text: as §1
# [1] = target: T7, ABL1(Q252H)-nonphosphorylated (Homo sapiens, UniProt P00519, Q252H); assay: KINOMEscan at 1 μM, ABL1(Q252H)-nonphosphorylated; type: binding; conditions: 1000 nM, read-out: Percent Control
# T7 construct: purchased Eurofins DiscoverX KINOMEscan
# Text: as §1
# MKNK1 = target: T8, MKNK1 (Homo sapiens, UniProt Q9BUB5); assay: KINOMEscan at 1 μM, MKNK1; type: binding; conditions: 1000 nM, read-out: Percent Control
# T8 construct: purchased Eurofins DiscoverX KINOMEscan
# Text: as §1
# KIT(V559D,T670I) = target: T9, KIT(V559D,T670I) (Homo sapiens, UniProt P10721, T670I/V559D); assay: KINOMEscan binding assay at 1 μM, KIT(V559D,T670I); conditions: Compound Concentration 1000 nM; read-out: Percent Control
# T9 construct: purchased Eurofins DiscoverX KINOMEscan
# Text: as §1
# MET(M1250T) = target: T10, MET(M1250T) (Homo sapiens, UniProt P08581, M1250T); assay: KINOMEscan binding assay at 1 μM, MET(M1250T); conditions: Compound Concentration 1000 nM; read-out: Percent Control
# T10 construct: purchased Eurofins DiscoverX KINOMEscan
# Text: as §1
# PLK2 = target: T11, PLK2 (Homo sapiens, UniProt Q9NYY3); assay: KINOMEscan at 1 μM, PLK2; type: binding; conditions: 1000 nM, read-out: Percent Control
# T11 construct: purchased Eurofins DiscoverX KINOMEscan
# Text: as §1
# LKB1 = target: T12, LKB1 (Homo sapiens, UniProt Q15831); assay: KINOMEscan binding assay at 1 μM, LKB1; conditions: Compound Concentration 1000 nM; read-out: Percent Control
# T12 construct: purchased Eurofins DiscoverX KINOMEscan
# Text: as §1
# EGFR(S752-I759del) = target: T13, EGFR(S752-I759del) (Homo sapiens, UniProt P00533, DEL752-759); assay: KINOMEscan binding assay at 1 μM, EGFR(S752-I759del); conditions: Compound Concentration 1000 nM; read-out: Percent Control
# T13 construct: purchased Eurofins DiscoverX KINOMEscan
# Text: as §1
# CDK4-cyclinD3 = target: T14, CDK4-cyclinD3 (Homo sapiens, UniProt P11802); assay: KINOMEscan at 1 μM, CDK4-cyclinD3; type: binding; conditions: 1000 nM, read-out: Percent Control
# T14 construct: purchased Eurofins DiscoverX KINOMEscan
# Text: as §1
# FLT3(D835V) = target: T15, FLT3(D835V) (Homo sapiens, UniProt P36888, D835V); assay: KINOMEscan at 1 μM, FLT3(D835V); type: binding; conditions: 1000 nM, read-out: Percent Control
# T15 construct: purchased Eurofins DiscoverX KINOMEscan
# Text: as §1
# [2] = target: T16, EGFR(L747-S752del, P753S) (Homo sapiens, UniProt P00533, DEL747-752/P753S); assay: KINOMEscan binding assay at 1 μM, EGFR(L747-S752del, P753S); conditions: Compound Concentration 1000 nM; read-out: Percent Control
# T16 construct: purchased Eurofins DiscoverX KINOMEscan
# Text: as §1
# CSNK1E = target: T17, CSNK1E (Homo sapiens, UniProt P49674); assay: KINOMEscan at 1 μM, CSNK1E; type: binding; conditions: 1000 nM, read-out: Percent Control
# T17 construct: purchased Eurofins DiscoverX KINOMEscan
# Text: as §1
# RIPK2 = target: T18, RIPK2 (Homo sapiens, UniProt O43353); assay: KINOMEscan at 1 μM, RIPK2; type: binding; conditions: 1000 nM, read-out: Percent Control
# T18 construct: purchased Eurofins DiscoverX KINOMEscan
# Text: as §1
# FES = target: T19, FES (Homo sapiens, UniProt P07332); assay: KINOMEscan at 1 μM, FES; type: binding; conditions: 1000 nM, read-out: Percent Control
# T19 construct: purchased Eurofins DiscoverX KINOMEscan
# Text: as §1
# ERBB2 = target: T20, ERBB2 (Homo sapiens, UniProt P04626); assay: KINOMEscan binding assay at 1 μM, ERBB2; conditions: Compound Concentration 1000 nM; read-out: Percent Control
# T20 construct: purchased Eurofins DiscoverX KINOMEscan
# Text: as §1
# NEK11 = target: T21, NEK11 (Homo sapiens, UniProt Q8NG66); assay: KINOMEscan 1 μM, NEK11; type: binding; conditions: 1000 nM; Entrez NEK11; read-out: Percent Control
# T21 construct: purchased Eurofins DiscoverX KINOMEscan
# Text: (§2) Supplement cells-12-00287-s001.zip/File S2. KinomeScan data for the CAMKK2 probe and negative control.xlsx, sheet "SGC-CAMKK2-1" | column: Percent Control
# ADCK4 = target: T22, ADCK4 (Homo sapiens, UniProt Q96D53); assay: KINOMEscan 1 μM, ADCK4; type: binding; conditions: 1000 nM; Entrez ADCK4; read-out: Percent Control
# T22 construct: purchased Eurofins DiscoverX KINOMEscan
# Text: as §2
# MELK = target: T23, MELK (Homo sapiens, UniProt Q14680); assay: KINOMEscan 1 μM, MELK; type: binding; conditions: 1000 nM; Entrez MELK; read-out: Percent Control
# T23 construct: purchased Eurofins DiscoverX KINOMEscan
# Text: as §2
# MEK2 = target: T24, MEK2 (Homo sapiens, UniProt P36507); assay: KINOMEscan 1 μM, MEK2; type: binding; conditions: 1000 nM; Entrez MAP2K2; read-out: Percent Control
# T24 construct: purchased Eurofins DiscoverX KINOMEscan
# Text: as §2
# NEK4 = target: T25, NEK4 (Homo sapiens, UniProt P51957); assay: KINOMEscan 1 μM, NEK4; type: binding; conditions: 1000 nM; Entrez NEK4; read-out: Percent Control
# T25 construct: purchased Eurofins DiscoverX KINOMEscan
# Text: as §2
# JNK1 = target: T26, JNK1 (Homo sapiens, UniProt P45983); assay: KINOMEscan 1 μM, JNK1; type: binding; conditions: 1000 nM; Entrez MAPK8; read-out: Percent Control
# T26 construct: purchased Eurofins DiscoverX KINOMEscan
# Text: as §2
# DYRK1B = target: T27, DYRK1B (Homo sapiens, UniProt Q9Y463); assay: KINOMEscan 1 μM, DYRK1B; type: binding; conditions: 1000 nM; Entrez DYRK1B; read-out: Percent Control
# T27 construct: purchased Eurofins DiscoverX KINOMEscan
# Text: as §2
# GRK7 = target: T28, GRK7 (Homo sapiens, UniProt Q8WTQ7); assay: KINOMEscan 1 μM, GRK7; type: binding; conditions: 1000 nM; Entrez GRK7; read-out: Percent Control
# T28 construct: purchased Eurofins DiscoverX KINOMEscan
# Text: as §2
# PKMYT1 = target: T29, PKMYT1 (Homo sapiens, UniProt Q99640); assay: KINOMEscan 1 μM, PKMYT1; type: binding; conditions: 1000 nM; Entrez PKMYT1; read-out: Percent Control
# T29 construct: purchased Eurofins DiscoverX KINOMEscan
# Text: as §2
# RET(V804L) = target: T30, RET(V804L) (Homo sapiens, UniProt P07949, V804L); assay: KINOMEscan 1 μM, RET(V804L); type: binding; conditions: 1000 nM; Entrez RET; read-out: Percent Control
# T30 construct: purchased Eurofins DiscoverX KINOMEscan
# Text: as §2
# MYLK = target: T31, MYLK (Homo sapiens, UniProt Q15746); assay: KINOMEscan 1 μM, MYLK; type: binding; conditions: 1000 nM; Entrez MYLK; read-out: Percent Control
# T31 construct: purchased Eurofins DiscoverX KINOMEscan
# Text: as §2
# MAP4K5 = target: T32, MAP4K5 (Homo sapiens, UniProt Q9Y4K4); assay: KINOMEscan 1 μM, MAP4K5; type: binding; conditions: 1000 nM; Entrez MAP4K5; read-out: Percent Control
# T32 construct: purchased Eurofins DiscoverX KINOMEscan
# Text: as §2
# [3] = target: T33, RSK3(Kin.Dom.2-C-terminal) (Homo sapiens, UniProt Q15349); assay: DiscoverX KINOMEscan binding assay at 1 μM, RSK3(Kin.Dom.2-C-terminal); conditions: RSK3(Kin.Dom.2-C-terminal) (RPS6KA2); Compound Concentration 1000 nM; read-out: Percent Control
# T33 construct: RSK3(Kin.Dom.2-C-terminal); purchased Eurofins DiscoverX KINOMEscan
# Text: as §2
# T2 sequence (P54753 34-998): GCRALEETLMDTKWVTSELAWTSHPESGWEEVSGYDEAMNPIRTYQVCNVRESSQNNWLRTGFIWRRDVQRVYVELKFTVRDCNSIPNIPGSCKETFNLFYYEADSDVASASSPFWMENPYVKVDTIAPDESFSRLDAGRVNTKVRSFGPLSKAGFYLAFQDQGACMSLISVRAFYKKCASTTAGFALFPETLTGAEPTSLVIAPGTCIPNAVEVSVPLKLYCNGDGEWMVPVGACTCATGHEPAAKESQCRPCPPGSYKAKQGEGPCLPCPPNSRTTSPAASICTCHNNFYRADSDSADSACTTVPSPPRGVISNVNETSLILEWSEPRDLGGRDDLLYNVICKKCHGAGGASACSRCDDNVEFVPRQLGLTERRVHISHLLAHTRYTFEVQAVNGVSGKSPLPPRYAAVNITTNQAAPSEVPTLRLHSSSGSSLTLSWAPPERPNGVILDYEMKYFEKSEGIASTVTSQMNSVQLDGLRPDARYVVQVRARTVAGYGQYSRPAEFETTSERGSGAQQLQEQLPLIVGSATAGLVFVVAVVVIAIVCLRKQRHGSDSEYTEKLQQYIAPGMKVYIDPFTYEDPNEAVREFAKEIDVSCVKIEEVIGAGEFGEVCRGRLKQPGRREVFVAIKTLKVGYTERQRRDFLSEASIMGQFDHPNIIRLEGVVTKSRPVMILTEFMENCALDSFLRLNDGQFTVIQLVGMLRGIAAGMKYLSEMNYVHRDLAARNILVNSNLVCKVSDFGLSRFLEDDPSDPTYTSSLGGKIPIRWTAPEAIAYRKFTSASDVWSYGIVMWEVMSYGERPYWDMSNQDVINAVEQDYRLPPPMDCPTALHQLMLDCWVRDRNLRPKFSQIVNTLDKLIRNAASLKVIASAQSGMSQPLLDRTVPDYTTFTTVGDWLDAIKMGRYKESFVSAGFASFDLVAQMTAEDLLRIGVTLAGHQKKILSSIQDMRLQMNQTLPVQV
# T1 sequence (Q9H2X6 whole entry): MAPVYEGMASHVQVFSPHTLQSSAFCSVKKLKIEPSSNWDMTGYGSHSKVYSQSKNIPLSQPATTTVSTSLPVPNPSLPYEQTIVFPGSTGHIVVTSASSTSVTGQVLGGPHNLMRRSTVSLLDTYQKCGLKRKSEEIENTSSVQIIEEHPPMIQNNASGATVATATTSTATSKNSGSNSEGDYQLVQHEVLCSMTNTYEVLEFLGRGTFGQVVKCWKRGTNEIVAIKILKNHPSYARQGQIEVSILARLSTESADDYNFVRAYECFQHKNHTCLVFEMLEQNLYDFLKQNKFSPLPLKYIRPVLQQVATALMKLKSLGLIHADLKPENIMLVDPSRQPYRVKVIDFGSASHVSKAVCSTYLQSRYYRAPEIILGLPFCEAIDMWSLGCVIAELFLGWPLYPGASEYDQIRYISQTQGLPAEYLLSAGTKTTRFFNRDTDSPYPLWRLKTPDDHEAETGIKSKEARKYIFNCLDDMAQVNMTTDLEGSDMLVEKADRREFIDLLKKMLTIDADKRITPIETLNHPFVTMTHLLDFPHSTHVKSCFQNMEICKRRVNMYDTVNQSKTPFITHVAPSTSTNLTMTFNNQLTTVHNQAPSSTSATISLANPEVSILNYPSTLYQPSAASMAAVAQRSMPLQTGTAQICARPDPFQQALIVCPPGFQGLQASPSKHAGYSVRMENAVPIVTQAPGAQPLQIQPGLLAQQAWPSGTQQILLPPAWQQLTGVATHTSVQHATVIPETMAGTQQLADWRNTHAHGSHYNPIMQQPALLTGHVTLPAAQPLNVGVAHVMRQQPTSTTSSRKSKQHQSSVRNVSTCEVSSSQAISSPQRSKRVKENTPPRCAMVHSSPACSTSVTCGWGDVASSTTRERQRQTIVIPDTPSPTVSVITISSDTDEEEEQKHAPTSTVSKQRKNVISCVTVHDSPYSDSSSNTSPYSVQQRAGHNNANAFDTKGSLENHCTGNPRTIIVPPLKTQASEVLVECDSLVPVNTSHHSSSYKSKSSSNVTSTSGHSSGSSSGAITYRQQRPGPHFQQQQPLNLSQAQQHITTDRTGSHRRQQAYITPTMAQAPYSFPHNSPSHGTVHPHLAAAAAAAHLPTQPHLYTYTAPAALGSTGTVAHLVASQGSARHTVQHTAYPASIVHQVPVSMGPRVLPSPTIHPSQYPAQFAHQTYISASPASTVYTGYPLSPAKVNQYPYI
# T17 sequence (P49674 whole entry): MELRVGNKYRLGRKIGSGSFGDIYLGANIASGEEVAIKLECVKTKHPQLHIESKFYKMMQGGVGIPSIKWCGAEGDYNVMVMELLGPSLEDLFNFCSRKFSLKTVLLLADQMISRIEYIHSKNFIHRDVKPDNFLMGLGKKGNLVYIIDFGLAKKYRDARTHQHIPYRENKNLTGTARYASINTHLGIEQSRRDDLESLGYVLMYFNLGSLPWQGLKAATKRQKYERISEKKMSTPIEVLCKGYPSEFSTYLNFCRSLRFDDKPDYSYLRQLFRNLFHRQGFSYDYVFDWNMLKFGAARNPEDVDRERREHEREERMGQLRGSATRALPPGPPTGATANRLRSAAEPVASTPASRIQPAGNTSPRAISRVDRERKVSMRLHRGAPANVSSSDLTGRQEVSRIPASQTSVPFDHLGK
# T14 sequence (P11802 whole entry): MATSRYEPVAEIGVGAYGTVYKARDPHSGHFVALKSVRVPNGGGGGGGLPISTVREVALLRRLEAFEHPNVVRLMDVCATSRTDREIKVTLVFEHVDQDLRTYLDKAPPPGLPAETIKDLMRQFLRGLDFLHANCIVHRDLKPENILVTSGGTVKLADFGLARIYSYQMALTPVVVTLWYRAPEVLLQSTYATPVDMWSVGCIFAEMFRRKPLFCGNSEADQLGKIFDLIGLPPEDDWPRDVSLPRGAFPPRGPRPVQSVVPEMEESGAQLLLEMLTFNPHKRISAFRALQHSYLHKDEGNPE
# T14 sequence (P30281 whole entry partner): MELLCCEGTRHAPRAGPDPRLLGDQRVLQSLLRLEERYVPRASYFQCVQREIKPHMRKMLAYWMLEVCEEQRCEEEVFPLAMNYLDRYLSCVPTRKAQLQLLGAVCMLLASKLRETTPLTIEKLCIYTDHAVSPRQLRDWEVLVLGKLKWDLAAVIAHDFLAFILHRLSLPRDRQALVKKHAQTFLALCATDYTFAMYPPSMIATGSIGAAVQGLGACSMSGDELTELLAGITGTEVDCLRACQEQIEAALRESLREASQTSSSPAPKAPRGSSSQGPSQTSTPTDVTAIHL
# T11 sequence (Q9NYY3 whole entry): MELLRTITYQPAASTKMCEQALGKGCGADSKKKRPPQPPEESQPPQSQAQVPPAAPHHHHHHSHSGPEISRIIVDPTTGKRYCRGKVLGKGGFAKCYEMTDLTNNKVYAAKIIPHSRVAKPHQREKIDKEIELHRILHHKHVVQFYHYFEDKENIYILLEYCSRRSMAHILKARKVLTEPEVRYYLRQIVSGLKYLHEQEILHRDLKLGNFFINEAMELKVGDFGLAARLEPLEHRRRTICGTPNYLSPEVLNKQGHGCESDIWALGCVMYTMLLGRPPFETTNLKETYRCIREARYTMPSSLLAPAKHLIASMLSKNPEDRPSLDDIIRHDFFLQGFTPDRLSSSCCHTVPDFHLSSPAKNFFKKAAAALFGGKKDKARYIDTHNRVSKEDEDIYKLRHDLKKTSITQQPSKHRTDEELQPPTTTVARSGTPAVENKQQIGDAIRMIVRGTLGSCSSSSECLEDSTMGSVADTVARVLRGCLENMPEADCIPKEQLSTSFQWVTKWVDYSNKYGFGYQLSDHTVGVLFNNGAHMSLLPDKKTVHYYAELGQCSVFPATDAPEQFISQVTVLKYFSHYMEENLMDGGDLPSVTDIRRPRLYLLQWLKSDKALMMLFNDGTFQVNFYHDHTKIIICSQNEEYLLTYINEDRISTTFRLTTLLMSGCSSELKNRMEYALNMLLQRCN
# T5 sequence (Q9UQM7 whole entry): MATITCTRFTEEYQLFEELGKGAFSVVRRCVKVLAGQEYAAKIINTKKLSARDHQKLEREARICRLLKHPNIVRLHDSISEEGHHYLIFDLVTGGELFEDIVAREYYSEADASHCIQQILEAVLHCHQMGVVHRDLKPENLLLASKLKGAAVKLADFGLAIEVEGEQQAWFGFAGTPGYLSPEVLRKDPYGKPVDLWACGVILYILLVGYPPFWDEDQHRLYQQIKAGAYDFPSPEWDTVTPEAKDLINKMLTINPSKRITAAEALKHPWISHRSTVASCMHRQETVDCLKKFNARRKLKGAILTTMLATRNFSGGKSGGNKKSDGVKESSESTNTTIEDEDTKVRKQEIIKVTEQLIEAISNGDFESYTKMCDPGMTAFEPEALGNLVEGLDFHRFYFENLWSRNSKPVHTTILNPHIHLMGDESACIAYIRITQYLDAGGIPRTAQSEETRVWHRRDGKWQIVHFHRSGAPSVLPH
# T6 sequence (Q13555 whole entry): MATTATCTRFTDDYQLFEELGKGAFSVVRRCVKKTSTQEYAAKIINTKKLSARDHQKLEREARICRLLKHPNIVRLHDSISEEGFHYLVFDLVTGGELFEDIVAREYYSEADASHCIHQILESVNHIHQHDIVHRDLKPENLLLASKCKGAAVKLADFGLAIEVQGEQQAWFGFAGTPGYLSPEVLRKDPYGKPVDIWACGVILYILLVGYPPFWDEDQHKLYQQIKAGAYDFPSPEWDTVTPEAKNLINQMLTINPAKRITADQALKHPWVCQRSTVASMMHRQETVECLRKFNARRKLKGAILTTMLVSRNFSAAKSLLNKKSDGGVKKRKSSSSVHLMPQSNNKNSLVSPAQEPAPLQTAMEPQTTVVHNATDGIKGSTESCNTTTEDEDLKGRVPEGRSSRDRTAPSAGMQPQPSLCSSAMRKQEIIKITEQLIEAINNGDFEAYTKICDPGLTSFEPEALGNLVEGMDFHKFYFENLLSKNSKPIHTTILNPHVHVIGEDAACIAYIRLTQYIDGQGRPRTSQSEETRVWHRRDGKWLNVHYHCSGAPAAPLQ
smiles,measurement,setting,value
O=C(O)c1ccc(-c2coc3ncc(-c4ccccc4)cc23)cc1Cl [SGC-CAMKK2-1N (UNC-YL-83)],remaining binding at 1 µM,HIPK2,77%
same,remaining binding at 1 µM,EPHB3,53%
same,remaining binding at 1 µM,MET,91%
same,remaining binding at 1 µM,ROCK1,79%
same,remaining binding at 1 µM,CAMK2A,65%
same,remaining binding at 1 µM,CAMK2G,85%
same,remaining binding at 1 µM,[1],59%
same,remaining binding at 1 µM,MKNK1,49%
same,remaining binding at 1 µM,"KIT(V559D,T670I)",100%
same,remaining binding at 1 µM,MET(M1250T),100%
same,remaining binding at 1 µM,PLK2,91%
same,remaining binding at 1 µM,LKB1,100%
same,remaining binding at 1 µM,EGFR(S752-I759del),100%
same,remaining binding at 1 µM,CDK4-cyclinD3,87%
same,remaining binding at 1 µM,FLT3(D835V),97%
same,remaining binding at 1 µM,[2],100%
same,remaining binding at 1 µM,CSNK1E,92%
same,remaining binding at 1 µM,RIPK2,99%
same,remaining binding at 1 µM,FES,88%
same,remaining binding at 1 µM,ERBB2,100%
Cc1cccc(-c2cnc3occ(-c4ccc(C(=O)O)c(C5CCCC5)c4)c3c2)c1 [SGC-CAMKK2-1 (YL-36)],remaining binding at 1 µM,NEK11,100%
same,remaining binding at 1 µM,ADCK4,100%
same,remaining binding at 1 µM,MELK,79%
same,remaining binding at 1 µM,MEK2,100%
same,remaining binding at 1 µM,NEK4,100%
same,remaining binding at 1 µM,JNK1,100%
same,remaining binding at 1 µM,DYRK1B,100%
same,remaining binding at 1 µM,GRK7,94%
same,remaining binding at 1 µM,PKMYT1,99%
same,remaining binding at 1 µM,RET(V804L),94%
same,remaining binding at 1 µM,MYLK,76%
same,remaining binding at 1 µM,MAP4K5,100%
same,remaining binding at 1 µM,[3],100%
